Data: patent US20250188032A1, “NITROGEN-CONTAINING HETEROCYCLIC COMPOUNDS AND USES THEREOF” (BNH RESEARCH CO., LTD., priority 2022, published 2025)

How the values were obtained:
HDAC3 = HDAC3 (Homo sapiens, UniProt O15379); test: HDAC catalytic activity, fluorogenic substrate; assay type: biochemical; details: 10-dose, 3-fold serial dilution starting at 100 μM, duplicates
Experimental: (§1) The compound (racemate) was resuspended in 100 mM DMSO and tested in a 10-dose IC50 with 3-fold serial dilution starting at 100 μM against HDACs 1-9, and 11. As reference compounds, Trichostatin A (TSA) and TMP269 were tested in a 10-dose IC50 with 3-fold serial dilution starting at 10 μM or 1 μM.
(§2) 10 μM Fluorogenic peptide from p53 residues 379-382 (RHKK(Ac)AMC) was used for the substrate for HDAC 1, 2, 3, and 6, 50 μM Fluorogenic HDAC Class2a Substrate (Trifluoroacetyl Lysine) was used for the substrate for HDAC 4, 5, 7, 9, and 11, 100 μM Fluorogenic peptide from p53 residues 379-382 (RHK(Ac)K(Ac)AMC) was used for the substrate for HDAC8.
(§3) IC50 values were calculated using the GraphPad Prism 4 program based on a sigmoidal dose-response equation and the blank (DMSO) value concentration was entered as 1.00E-12 M for curve fitting.

HDAC9 = HDAC9 (Homo sapiens, UniProt Q9UKV0); test: HDAC catalytic activity, fluorogenic substrate; assay type: biochemical; details: 10-dose, 3-fold serial dilution starting at 100 μM, duplicates
Experimental: as §1, §2, §3

HDAC6 = target: T1, HDAC6 (Homo sapiens, UniProt Q9UBN7); test: HDAC catalytic activity, fluorogenic substrate; assay type: biochemical; details: 10-dose, 3-fold serial dilution starting at 100 μM, duplicates
T1 sequence (Q9UBN7 1-1215): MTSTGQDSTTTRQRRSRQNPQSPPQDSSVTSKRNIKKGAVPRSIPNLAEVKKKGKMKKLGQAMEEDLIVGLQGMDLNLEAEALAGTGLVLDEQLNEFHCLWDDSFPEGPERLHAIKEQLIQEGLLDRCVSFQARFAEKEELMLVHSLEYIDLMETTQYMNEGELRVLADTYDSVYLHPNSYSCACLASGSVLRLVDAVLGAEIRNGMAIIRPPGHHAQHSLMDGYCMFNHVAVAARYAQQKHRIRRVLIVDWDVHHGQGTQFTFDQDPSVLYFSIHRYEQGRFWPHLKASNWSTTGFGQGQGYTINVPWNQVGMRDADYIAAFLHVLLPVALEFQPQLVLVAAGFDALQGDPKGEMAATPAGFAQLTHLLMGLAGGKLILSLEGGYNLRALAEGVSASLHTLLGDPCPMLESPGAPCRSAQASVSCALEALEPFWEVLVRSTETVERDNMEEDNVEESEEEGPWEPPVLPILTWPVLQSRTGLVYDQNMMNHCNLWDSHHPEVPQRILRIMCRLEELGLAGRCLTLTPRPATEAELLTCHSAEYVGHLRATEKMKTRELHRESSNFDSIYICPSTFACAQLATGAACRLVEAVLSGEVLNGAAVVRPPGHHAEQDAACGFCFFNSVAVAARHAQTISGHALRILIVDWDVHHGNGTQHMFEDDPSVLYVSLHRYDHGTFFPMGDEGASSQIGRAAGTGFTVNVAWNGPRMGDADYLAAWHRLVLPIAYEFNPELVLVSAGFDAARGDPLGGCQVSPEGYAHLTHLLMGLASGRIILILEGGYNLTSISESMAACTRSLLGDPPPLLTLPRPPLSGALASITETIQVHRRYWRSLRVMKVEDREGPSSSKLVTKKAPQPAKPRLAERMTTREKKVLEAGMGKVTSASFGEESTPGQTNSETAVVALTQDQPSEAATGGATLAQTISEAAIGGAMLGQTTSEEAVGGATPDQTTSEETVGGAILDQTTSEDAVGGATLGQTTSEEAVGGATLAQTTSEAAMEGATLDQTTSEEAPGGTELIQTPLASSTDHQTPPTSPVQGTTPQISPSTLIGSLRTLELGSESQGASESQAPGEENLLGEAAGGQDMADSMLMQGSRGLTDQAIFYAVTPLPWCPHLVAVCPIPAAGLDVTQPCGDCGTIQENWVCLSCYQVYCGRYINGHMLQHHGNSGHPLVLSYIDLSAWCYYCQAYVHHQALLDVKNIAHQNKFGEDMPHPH
Experimental: as §1, §2, §3

SH-SY5Y cells = test: Cytotoxicity test (CCK-8 cell viability) in SH-SY5Y cells; assay type: cell-based, human; details: 0, 0.1, 1, 10, 100 μM
Experimental: Human undifferentiated neuroblastoma cell line SH-SY5Y and human embryonic kidney cell line (HEK)-293T were purchased from Korean Cell Line Bank (Korea) and Takara (Japan), respectively. Cells were grown in HyClone Minimal Essential Medium (MEM) and Dulbecco's Modified Eagle Medium (DMEM), respectively, supplemented with 10% (v/v) fetal bovine serum (FBS), penicillin (100 U/mL), and streptomycin ([…]). Cells were maintained in a humidified atmosphere of 95% air and 5% CO2 at 37° C. Cells were passaged 10 times at maximum. Cells were dissociated using 0.05% trypsin-EDTA solution and the cells were seeded in new culture dishes for maintenance.
To examine the cytotoxicity of compounds described herein in human cell lines, SH-SY5Y and 293T cells were used. […] Finally, 10 μL of CCK-8 reagent (Dojindo Laboratories, Rockville, MD) was added to each well, and after incubation at 37° C. for 3 minutes, the OD at 450 nm was measured using a multifunction microplate reader (Tecan Infinite M200 Pro). These measurements were compared to that of a control and expressed as a percentage of the control to calculate cell viability. The IC50 value was calculated using SPSS software. To do this, the absorbance of the blank wells with only growth medium is subtracted from the values or the wells with cells. […]

HDAC9, sequence (Q9UKV0 whole entry): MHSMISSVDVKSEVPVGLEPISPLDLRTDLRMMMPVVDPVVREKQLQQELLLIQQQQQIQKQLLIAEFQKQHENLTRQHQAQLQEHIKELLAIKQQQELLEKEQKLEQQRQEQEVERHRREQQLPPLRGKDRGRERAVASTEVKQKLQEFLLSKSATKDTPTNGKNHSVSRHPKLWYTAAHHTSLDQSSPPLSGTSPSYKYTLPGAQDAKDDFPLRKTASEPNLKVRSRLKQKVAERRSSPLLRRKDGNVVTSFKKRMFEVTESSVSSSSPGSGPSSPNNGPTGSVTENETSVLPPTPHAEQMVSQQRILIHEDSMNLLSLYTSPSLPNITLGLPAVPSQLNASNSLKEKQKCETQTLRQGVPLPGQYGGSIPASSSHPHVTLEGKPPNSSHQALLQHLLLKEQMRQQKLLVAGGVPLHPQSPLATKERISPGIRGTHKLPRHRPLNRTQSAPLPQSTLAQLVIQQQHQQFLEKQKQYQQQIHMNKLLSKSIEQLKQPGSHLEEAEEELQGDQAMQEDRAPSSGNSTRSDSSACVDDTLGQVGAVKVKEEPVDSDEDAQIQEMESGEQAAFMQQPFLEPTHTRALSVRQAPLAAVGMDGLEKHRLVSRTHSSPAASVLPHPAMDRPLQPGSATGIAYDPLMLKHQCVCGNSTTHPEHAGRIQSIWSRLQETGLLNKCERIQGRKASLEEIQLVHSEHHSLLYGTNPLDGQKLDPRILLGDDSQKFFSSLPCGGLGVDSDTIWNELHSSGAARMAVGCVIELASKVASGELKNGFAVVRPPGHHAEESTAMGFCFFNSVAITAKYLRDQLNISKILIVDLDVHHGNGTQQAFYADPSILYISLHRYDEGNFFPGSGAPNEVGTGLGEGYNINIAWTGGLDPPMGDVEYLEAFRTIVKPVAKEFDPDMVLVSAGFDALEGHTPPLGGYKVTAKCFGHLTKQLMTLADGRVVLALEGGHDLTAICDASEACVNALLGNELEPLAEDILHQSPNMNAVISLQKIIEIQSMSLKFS
HDAC3, sequence (O15379 whole entry): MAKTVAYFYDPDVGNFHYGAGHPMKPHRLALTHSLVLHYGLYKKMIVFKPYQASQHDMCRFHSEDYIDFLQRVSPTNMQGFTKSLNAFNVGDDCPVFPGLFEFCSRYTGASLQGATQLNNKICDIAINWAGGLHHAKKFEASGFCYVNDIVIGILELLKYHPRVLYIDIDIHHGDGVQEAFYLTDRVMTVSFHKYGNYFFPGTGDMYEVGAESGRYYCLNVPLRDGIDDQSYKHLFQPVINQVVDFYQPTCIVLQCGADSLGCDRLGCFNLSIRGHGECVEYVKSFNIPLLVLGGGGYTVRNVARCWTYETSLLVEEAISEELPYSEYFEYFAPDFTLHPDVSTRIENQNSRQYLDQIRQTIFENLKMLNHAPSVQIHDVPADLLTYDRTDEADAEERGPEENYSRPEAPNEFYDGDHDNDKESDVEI
HDAC3, sequence (Q9Y618 395-489 partner limits assumed): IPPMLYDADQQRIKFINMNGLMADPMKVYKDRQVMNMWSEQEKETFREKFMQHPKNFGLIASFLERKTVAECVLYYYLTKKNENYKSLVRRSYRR

Inhibitory effect on HDAC3 catalytic activity (HDAC3): did not show any inhibitory effect | Inhibitory effect on HDAC9 catalytic activity (HDAC9): did not show any inhibitory effect | Inhibitory effect on HDAC6 catalytic activity (HDAC6): did not show any inhibitory effect
SMILES: CC1CCC(C(=O)O)CN1C(=O)Cc1ccc(F)cc1Cl (racemic) [BnH12001, 1-(2-(2-chloro-4-fluorophenyl)acetyl)-6-methylpiperidine-3-carboxylic acid]
Change in cell viability (SH-SY5Y cells): no significant change in cell viability
